Experiments:
Test in all cases: Herbicidal effect by foliage and soil treatment
Format in all cases: in vivo
Details in all cases: 10 g ai/10a, evaluated after 14 days
[1] = test system: black nightshade (Solanum nigrum)
Method in brief: (§1)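 Scores are ratings of growth versus untreated plants 14 days after treatment. Plants grown to cotyledonal–bifoliate stage in granular soil at 19 to 25° C received a foliage-and-soil spray of test solution containing Tween 20, applied at a set compound amount.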

[2] = test system: cleavers (Galium aparine)
Method in brief: as §1

[3] = test system: common blackjack (Bidens pilosa)
Method in brief: as §1

[4] = test system: common chickweed (Stellaria media)
Method in brief: as §1

[5] = test system: field bindweed (Convolvulus arvensis)
Method in brief: as §1

[6] = test system: ivyleafspeedwell (Veronica hederaefolia)
Method in brief: as §1

[7] = test system: kediock (Sinapis arvensis)
Method in brief: as §1

[8] = test system: redroot pigweed (Amaranthus retroflexus)
Method in brief: as §1

[9] = test system: sicklepod (Cassia obtusifolia)
Method in brief: as §1

[10] = test system: velvetleaf (Abutilon theophrasti)
Method in brief: as §1

[11] = test system: wild chamomile (Matricaria chamomilla)
Method in brief: as §1

For `COc1cc(Oc2cccc(C(F)(F)F)c2)nc(C(=O)NCCSCC(F)(F)F)c1` [Compound I-94], the “herbicidal activity rating, SN (Solanum nigrum)” value (from here on “herbicidal activity rating, SN”) [1] was 5 (percentage of weeds killed was not less than 80%), the “herbicidal activity rating, GA (Galium aparine)” value (shortened to “herbicidal activity rating, GA”) [2] was 5 (percentage of weeds killed was not less than 80%) and the “herbicidal activity rating, BP (Bidens pilosa)” value (“herbicidal activity rating, BP” below) [3] was 4 (percentage of weeds killed was not less than 60% and less than 80%). The “herbicidal activity rating, SM (Stellaria media)” value (“herbicidal activity rating, SM” for short) [4] was 4 (percentage of weeds killed was not less than 60% and less than 80%), the “herbicidal activity rating, CA (Convolvulus arvensis)” value (“herbicidal activity rating, CA” below) [5] was 5 (percentage of weeds killed was not less than 80%) and the “herbicidal activity rating, VH (Veronica hederaefolia)” value (“herbicidal activity rating, VH” below) [6] was 5 (percentage of weeds killed was not less than 80%). For the same molecule, the “herbicidal activity rating, SA (Sinapis arvensis)” value (“herbicidal activity rating, SA” for short) [7] was 5 (percentage of weeds killed was not less than 80%), the “herbicidal activity rating, AR (Amaranthus retroflexus)” value (“herbicidal activity rating, AR” for short) [8] was 5 (percentage of weeds killed was not less than 80%) and the “herbicidal activity rating, CO (Cassia obtusifolia)” value (shortened to “herbicidal activity rating, CO”) [9] was 5 (percentage of weeds killed was not less than 80%). The “herbicidal activity rating, AT (Abutilon theophrasti)” value [10] was 5 (percentage of weeds killed was not less than 80%) and the “herbicidal activity rating, MC (Matricaria chamomilla)” value (“herbicidal activity rating, MC” below) [11] was 4 (percentage of weeds killed was not less than 60% and less than 80%).
In the case of `COc1cc(Oc2cccc(C(F)(F)F)c2)nc(C(=O)NO)c1` [Compound I-96, N-hydroxy-4-methoxy-6-{3-(trifluoromethyl)phenoxy}-2-pyridine carboxamide], the “herbicidal activity rating, SN” value [1] is reported as 5 (percentage of weeds killed was not less than 80%), the “herbicidal activity rating, GA” value [2] is reported as 5 (percentage of weeds killed was not less than 80%) and the “herbicidal activity rating, BP” value [3] is reported as 4 (percentage of weeds killed was not less than 60% and less than 80%). For the same molecule, the “herbicidal activity rating, SM” value [4] was 5 (percentage of weeds killed was not less than 80%), the “herbicidal activity rating, CA” value [5] was 3 (percentage of weeds killed was not less than 40% and less than 60%) and the “herbicidal activity rating, VH” value [6] was 5 (percentage of weeds killed was not less than 80%). For the same molecule, the “herbicidal activity rating, SA” value [7] was 5 (percentage of weeds killed was not less than 80%), the “herbicidal activity rating, AR” value [8] was 5 (percentage of weeds killed was not less than 80%) and the “herbicidal activity rating, CO” value [9] was 5 (percentage of weeds killed was not less than 80%). The “herbicidal activity rating, AT (Abutilon theophrasti)” value [10] was 3 (percentage of weeds killed was not less than 40% and less than 60%) and the “herbicidal activity rating, MC” value [11] was 1 (percentage of weeds killed was less than 20%).
With `CONC(=O)c1cc(OC)cc(Oc2cccc(C(F)(F)F)c2)n1` [Compound I-97, N-methoxy-4-methoxy-6-{3-(trifluoromethyl)phenoxy}-2-pyridine carboxamide] the “herbicidal activity rating, SN” value [1] was 5 (percentage of weeds killed was not less than 80%), the “herbicidal activity rating, GA” value [2] was 5 (percentage of weeds killed was not less than 80%) and the “herbicidal activity rating, BP” value [3] was 5 (percentage of weeds killed was not less than 80%). For the same molecule, the “herbicidal activity rating, SM” value [4] was 5 (percentage of weeds killed was not less than 80%), the “herbicidal activity rating, CA” value [5] was 4 (percentage of weeds killed was not less than 60% and less than 80%) and the “herbicidal activity rating, VH” value [6] was 5 (percentage of weeds killed was not less than 80%). For the same molecule, the “herbicidal activity rating, SA” value [7] was 5 (percentage of weeds killed was not less than 80%), the “herbicidal activity rating, AR” value [8] was 5 (percentage of weeds killed was not less than 80%) and the “herbicidal activity rating, CO” value [9] was 5 (percentage of weeds killed was not less than 80%). For the same molecule, the “herbicidal activity rating, AT (Abutilon theophrasti)” value [10] was 5 (percentage of weeds killed was not less than 80%) and the “herbicidal activity rating, MC” value [11] was 5 (percentage of weeds killed was not less than 80%).
`CCCONC(=O)c1cc(OC)cc(Oc2cccc(C(F)(F)F)c2)n1` [Compound I-99, N-(n-propoxy)-4-methoxy-6-{3-(trifluoromethyl)phenoxy}-2-pyridine carboxamide] was tested, and the “herbicidal activity rating, SN” value [1] was 5 (percentage of weeds killed was not less than 80%), the “herbicidal activity rating, GA” value [2] was 5 (percentage of weeds killed was not less than 80%) and the “herbicidal activity rating, BP” value [3] was 5 (percentage of weeds killed was not less than 80%). The “herbicidal activity rating, SM” value [4] was 5 (percentage of weeds killed was not less than 80%), the “herbicidal activity rating, CA” value [5] was 5 (percentage of weeds killed was not less than 80%) and the “herbicidal activity rating, VH” value [6] was 5 (percentage of weeds killed was not less than 80%). For the same molecule, the “herbicidal activity rating, SA” value [7] was 5 (percentage of weeds killed was not less than 80%), the “herbicidal activity rating, AR” value [8] was 5 (percentage of weeds killed was not less than 80%) and the “herbicidal activity rating, CO” value [9] was 5 (percentage of weeds killed was not less than 80%). For the same molecule, the “herbicidal activity rating, AT (Abutilon theophrasti)” value [10] was 5 (percentage of weeds killed was not less than 80%) and the “herbicidal activity rating, MC” value [11] was 4 (percentage of weeds killed was not less than 60% and less than 80%).
`C=CCONC(=O)c1cc(OC)cc(Oc2cccc(C(F)(F)F)c2)n1` [Compound I-100] was tested, and the “herbicidal activity rating, SN” value [1] was 5 (percentage of weeds killed was not less than 80%), the “herbicidal activity rating, GA” value [2] was 5 (percentage of weeds killed was not less than 80%) and the “herbicidal activity rating, BP” value [3] was 4 (percentage of weeds killed was not less than 60% and less than 80%). The “herbicidal activity rating, SM” value [4] was 4 (percentage of weeds killed was not less than 60% and less than 80%), the “herbicidal activity rating, CA” value [5] was 4 (percentage of weeds killed was not less than 60% and less than 80%) and the “herbicidal activity rating, VH” value [6] was 5 (percentage of weeds killed was not less than 80%). For the same molecule, the “herbicidal activity rating, SA” value [7] was 5 (percentage of weeds killed was not less than 80%), the “herbicidal activity rating, AR” value [8] was 5 (percentage of weeds killed was not less than 80%) and the “herbicidal activity rating, CO” value [9] was 5 (percentage of weeds killed was not less than 80%). The “herbicidal activity rating, AT (Abutilon theophrasti)” value [10] was 5 (percentage of weeds killed was not less than 80%) and the “herbicidal activity rating, MC” value [11] was 4 (percentage of weeds killed was not less than 60% and less than 80%).
`COc1cc(Oc2cccc(C(F)(F)F)c2)nc(C(=O)NOCCF)c1` [Compound I-102] was tested, and the “herbicidal activity rating, SN” value [1] was 5 (percentage of weeds killed was not less than 80%), the “herbicidal activity rating, GA” value [2] was 5 (percentage of weeds killed was not less than 80%) and the “herbicidal activity rating, BP” value [3] was 5 (percentage of weeds killed was not less than 80%). For the same molecule, the “herbicidal activity rating, SM” value [4] was 4 (percentage of weeds killed was not less than 60% and less than 80%), the “herbicidal activity rating, CA” value [5] was 4 (percentage of weeds killed was not less than 60% and less than 80%) and the “herbicidal activity rating, VH” value [6] was 5 (percentage of weeds killed was not less than 80%). The “herbicidal activity rating, SA” value [7] was 5 (percentage of weeds killed was not less than 80%), the “herbicidal activity rating, AR” value [8] was 5 (percentage of weeds killed was not less than 80%) and the “herbicidal activity rating, CO” value [9] was 5 (percentage of weeds killed was not less than 80%). The “herbicidal activity rating, AT (Abutilon theophrasti)” value [10] was 4 (percentage of weeds killed was not less than 60% and less than 80%) and the “herbicidal activity rating, MC” value [11] was 3 (percentage of weeds killed was not less than 40% and less than 60%).
For `CCOCONC(=O)c1cc(OC)cc(Oc2cccc(C(F)(F)F)c2)n1` [Compound I-105], the “herbicidal activity rating, SN” value [1] was 5 (percentage of weeds killed was not less than 80%), the “herbicidal activity rating, GA” value [2] was 5 (percentage of weeds killed was not less than 80%) and the “herbicidal activity rating, BP” value [3] was 4 (percentage of weeds killed was not less than 60% and less than 80%). For the same molecule, the “herbicidal activity rating, SM” value [4] was 4 (percentage of weeds killed was not less than 60% and less than 80%), the “herbicidal activity rating, CA” value [5] was 4 (percentage of weeds killed was not less than 60% and less than 80%) and the “herbicidal activity rating, VH” value [6] was 5 (percentage of weeds killed was not less than 80%). The “herbicidal activity rating, SA” value [7] was 5 (percentage of weeds killed was not less than 80%), the “herbicidal activity rating, AR” value [8] was 5 (percentage of weeds killed was not less than 80%) and the “herbicidal activity rating, CO” value [9] was 5 (percentage of weeds killed was not less than 80%). The “herbicidal activity rating, AT (Abutilon theophrasti)” value [10] was 4 (percentage of weeds killed was not less than 60% and less than 80%) and the “herbicidal activity rating, MC” value [11] was 3 (percentage of weeds killed was not less than 40% and less than 60%).
With `COc1cc(Oc2cccc(C(F)(F)F)c2)nc(C(=O)NOCC2CC2)c1` [Compound I-107] the “herbicidal activity rating, SN” value [1] was 5 (percentage of weeds killed was not less than 80%), the “herbicidal activity rating, GA” value [2] was 5 (percentage of weeds killed was not less than 80%) and the “herbicidal activity rating, BP” value [3] was 3 (percentage of weeds killed was not less than 40% and less than 60%). The “herbicidal activity rating, SM” value [4] was 5 (percentage of weeds killed was not less than 80%), the “herbicidal activity rating, CA” value [5] was 4 (percentage of weeds killed was not less than 60% and less than 80%) and the “herbicidal activity rating, VH” value [6] was 5 (percentage of weeds killed was not less than 80%). For the same molecule, the “herbicidal activity rating, SA” value [7] was 5 (percentage of weeds killed was not less than 80%), the “herbicidal activity rating, AR” value [8] was 5 (percentage of weeds killed was not less than 80%) and the “herbicidal activity rating, CO” value [9] was 5 (percentage of weeds killed was not less than 80%). For the same molecule, the “herbicidal activity rating, AT (Abutilon theophrasti)” value [10] was 4 (percentage of weeds killed was not less than 60% and less than 80%) and the “herbicidal activity rating, MC” value [11] was 3 (percentage of weeds killed was not less than 40% and less than 60%).

From patent publication US6339045B1, “N-(unsubstituted or substituted)-4-substituted-6-(unsubstituted or substituted)phenoxy-2-pyridinecarboxamides or thiocarboxamides, processes for producing the same, and herbicides” (Kureha Kagaku Kogyo Kabushiki Kaisha, priority 1995, dated 2002)
